Reference: PMC10046946, “Novel Phthalic-Based Anticancer Tyrosine Kinase Inhibitors: Design, Synthesis and Biological Activity” (Current Issues in Molecular Biology, 2023)
“Also recorded” adds a separate entry of the source.

Experiments:
[1] = system: OKP-GS (renal cell carcinoma); assay: MTT cell proliferation assay, OKP-GS; type: cell-based; settings: 72 h of exposition, read-out: Anti-proliferative activity IC50, OKP-GS
Method in brief: (§1)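 Antiproliferative effect is expressed as IC50 from MTT viability measurements, run on a six-line cancer panel alongside normal human B lymphocytes (RPMI 1788) to gauge systemic toxicity.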

[2] = system: RPMI 1788 cells (B lymphocyte, human); assay: MTT cell proliferation assay, normal RPMI 1788 cells; type: cell-based; settings: normal human lymphoblastoid cells RPMI 1788, 72 h of exposition, read-out: Anti-proliferative activity IC50, RPMI 1788
Method in brief: as §1

[3] = system: HL-60 (promyelocytic leukemia); assay: MTT cell proliferation assay, HL-60; type: cell-based; settings: Homo sapiens, HL-60, 72 h of exposition, read-out: Anti-proliferative activity IC50, HL-60
Method in brief: as §1

[4] = system: MCF-7 (breast adenocarcinoma); assay: MTT cell proliferation assay, MCF-7; type: cell-based; settings: Homo sapiens, MCF7, MCF-7, 72 h of exposition, read-out: Anti-proliferative activity IC50, MCF-7
Method in brief: as §1

[5] = system: K562 (chronic myelogenous leukemia); assay: MTT cell proliferation assay, K562; type: cell-based; settings: Homo sapiens, K562, 72 h of exposition, read-out: Anti-proliferative activity IC50, K562
Method in brief: as §1

[6] = system: HepG2 (human liver cancer); assay: MTT cell proliferation assay, HepG2; type: cell-based; settings: Homo sapiens, HepG2, 72 h, HepG2, 72 h of exposition, read-out: Anti-proliferative activity IC50, HepG2
Method in brief: as §1

[7] = system: cancer cell lines (K562, HL-60, MCF-7, HepG2, A549, OKP-GS); assay: MTT cell proliferation assay, statements over the whole cell line panel; type: cell-based; settings: statement over the cell line panel, studied concentration range up to 50 µM
Experimental: Tests to determine the effects of the synthesized compounds on cell viability and the half-maximal inhibitory concentration (IC50) were performed using the MTT assay, as described in our prior work.
The target compounds 5, 6, 8–12, 14, 15, 17–22 and 24–26 were tested for antiproliferative activity against six cancer cell lines: K562 (chronic myelogenous leukemia), HL-60 (promyelocytic leukemia), MCF-7 (breast adenocarcinoma), HepG2 (human liver cancer), A549 (lung carcinoma) and OKP-GS (renal cell carcinoma). The RPMI 1788 cells (B lymphocyte, human) were used as a control to evaluate the system toxicity of the studied compounds to normal cells. Sorafenib, nilotinib and lapatinib were utilized as reference standards for comparison.

A549 (lung carcinoma) = assay: MTT cell proliferation assay, A549; type: cell-based; settings: Homo sapiens, A549, 72 h of exposition, read-out: Anti-proliferative activity IC50, A549
Method in brief: as §1

HER4 = molecular target: T1, HER4 (Homo sapiens, UniProt Q15303); assay: ADP-Glo kinase assay, HER4; type: biochemical
T1 construct: purchased Promega
Method in brief: (§2)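 ADP-Glo format, TK selectivity panel, kit protocol; inhibition derived from luminescence.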

KDR (VEGFR-2) = molecular target: T2, KDR (VEGFR-2) (Homo sapiens, UniProt P35968); assay: ADP-Glo kinase assay, KDR; type: biochemical
T2 construct: purchased Promega
Source text: (§4) The selectivity of the potential kinase inhibitor against a specific protein kinase or a specific family of kinases was investigated using the Kinase Selectivity Profiling System TK-1, Other/CK-1 and ADP-Glo™ Kinase assay kit (Promega, Madison, WI, USA).

EGFR = molecular target: T3, EGFR (Homo sapiens, UniProt P00533); assay: ADP-Glo kinase assay, EGFR; type: biochemical
T3 construct: purchased Promega
Source text: as §4

PDGFRα = molecular target: T4, PDGFRα (Homo sapiens, UniProt P16234); assay: ADP-Glo kinase assay, PDGFRα; type: biochemical
T4 construct: purchased Promega
Method in brief: as §2

InsR (insulin receptor) = molecular target: T5, InsR (insulin receptor) (Homo sapiens, UniProt P06213); assay: ADP-Glo kinase assay, InsR; type: biochemical
T5 construct: purchased Promega
Method in brief: as §2

[8] = molecular target: T6, IGF1R (insulin-like growth factor 1 receptor) (Homo sapiens, UniProt P08069); assay: ADP-Glo kinase assay, IGF1R; type: biochemical
T6 construct: purchased Promega
Method in brief: as §2

Aurora A = molecular target: T7, Aurora A (Homo sapiens, UniProt O14965); assay: ADP-Glo kinase assay, Aurora A; type: biochemical
T7 construct: purchased Promega
T7 sequence (O14965 1-403): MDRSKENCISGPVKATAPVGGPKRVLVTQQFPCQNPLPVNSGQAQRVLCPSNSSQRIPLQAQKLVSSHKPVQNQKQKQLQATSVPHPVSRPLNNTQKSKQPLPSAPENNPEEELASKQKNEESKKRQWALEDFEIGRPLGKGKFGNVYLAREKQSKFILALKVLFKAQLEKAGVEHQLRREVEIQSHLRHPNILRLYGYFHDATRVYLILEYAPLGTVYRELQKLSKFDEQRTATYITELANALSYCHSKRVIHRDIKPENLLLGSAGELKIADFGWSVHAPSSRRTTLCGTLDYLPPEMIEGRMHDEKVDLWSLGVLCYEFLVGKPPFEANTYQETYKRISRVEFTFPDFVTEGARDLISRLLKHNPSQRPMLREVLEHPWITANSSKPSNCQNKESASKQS
Method in brief: (§3)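 Inhibition measured by ADP-Glo luminescence using the Kinase Selectivity Profiling System TK-1 (tyrosine kinases) and Other/CK-1 (serine/threonine kinases), run per the kit manual.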

Aurora B = molecular target: T8, Aurora B (Homo sapiens, UniProt Q96GD4); assay: ADP-Glo kinase assay, Aurora B; type: biochemical
T8 construct: purchased Promega
Method in brief: as §3

PDGFRβ = molecular target: T9, PDGFRβ (Homo sapiens, UniProt P09619); assay: ADP-Glo kinase assay, PDGFRβ; type: biochemical
T9 construct: purchased Promega
Method in brief: as §2

HER2 = molecular target: T10, HER2 (Homo sapiens, UniProt P04626); assay: ADP-Glo kinase assay, HER2; type: biochemical
T10 construct: purchased Promega
Method in brief: as §2

K562 cell line = assay: ROS determination (DCFH-DA, flow cytometry); type: cell-based; settings: 48 h
Experimental: The redox status was assessed using the K562 cell line. […] Then, the cells were washed to remove the 2′,7′-dichlorodihydrofluorescein diacetate by centrifugation at 1000 rpm for 5 min. The measurements were conducted using a Cytomics FC500 Beckman Coulter flow cytometer (FL1 channel for DCF).

K562 cells = assay: Cell cycle analysis (propidium iodide, flow cytometry); type: cell-based; settings: 48 h
Experimental: Tumor cells were seeded on a 6-well plate at a density of 400,000 per well for K562. Test compounds 5, 14 and 15 were added at concentrations of 1, 5 and 10 μM in duplicate for 48 h. The methodology and analysis of the obtained data were performed as described in our prior work.
As shown above, compounds 5, 14 and 15 had significant antiproliferative activities, which is why their influences on the cell cycle and apoptosis level were determined, with the aim of understanding whether these effects are cytostatic or cytotoxic. In the cell cycle experiments, K562 cells were used. […] For the determination of changes in the distribution of cells in the phases of the cell cycle, the widely employed method of staining the cells with propidium iodide was used.

T10 sequence (P04626 23-1255): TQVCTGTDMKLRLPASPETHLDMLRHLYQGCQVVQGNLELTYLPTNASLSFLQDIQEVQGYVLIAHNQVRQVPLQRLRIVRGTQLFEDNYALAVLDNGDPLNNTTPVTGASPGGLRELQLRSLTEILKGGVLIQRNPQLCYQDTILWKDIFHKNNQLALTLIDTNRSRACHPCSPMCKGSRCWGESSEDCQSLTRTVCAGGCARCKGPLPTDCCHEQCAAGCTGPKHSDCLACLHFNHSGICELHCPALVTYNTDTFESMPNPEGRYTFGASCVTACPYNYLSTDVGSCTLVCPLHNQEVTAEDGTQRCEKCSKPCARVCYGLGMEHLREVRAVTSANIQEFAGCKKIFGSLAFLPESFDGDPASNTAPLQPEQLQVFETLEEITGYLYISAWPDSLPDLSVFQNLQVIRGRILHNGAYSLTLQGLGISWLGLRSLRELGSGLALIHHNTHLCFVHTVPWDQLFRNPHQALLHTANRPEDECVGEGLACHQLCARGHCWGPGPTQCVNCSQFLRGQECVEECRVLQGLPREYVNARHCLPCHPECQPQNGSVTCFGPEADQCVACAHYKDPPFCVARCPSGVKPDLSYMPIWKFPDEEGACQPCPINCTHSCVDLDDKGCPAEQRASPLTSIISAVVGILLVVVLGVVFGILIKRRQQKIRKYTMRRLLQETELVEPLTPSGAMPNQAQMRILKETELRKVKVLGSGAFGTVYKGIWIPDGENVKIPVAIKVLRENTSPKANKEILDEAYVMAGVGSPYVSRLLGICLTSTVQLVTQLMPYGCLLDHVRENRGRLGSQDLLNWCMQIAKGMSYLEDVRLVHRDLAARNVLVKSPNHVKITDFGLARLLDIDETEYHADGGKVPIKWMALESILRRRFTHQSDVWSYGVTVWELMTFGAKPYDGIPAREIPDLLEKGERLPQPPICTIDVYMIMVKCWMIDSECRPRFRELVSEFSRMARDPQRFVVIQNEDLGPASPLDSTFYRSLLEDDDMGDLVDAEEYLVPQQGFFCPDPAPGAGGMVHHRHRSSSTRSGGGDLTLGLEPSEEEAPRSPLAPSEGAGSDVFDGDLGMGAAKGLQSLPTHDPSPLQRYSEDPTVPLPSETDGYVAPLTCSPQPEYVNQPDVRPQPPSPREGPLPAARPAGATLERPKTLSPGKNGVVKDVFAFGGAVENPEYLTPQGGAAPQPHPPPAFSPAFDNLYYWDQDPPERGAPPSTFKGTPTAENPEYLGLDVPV
T4 sequence (P16234 24-1089): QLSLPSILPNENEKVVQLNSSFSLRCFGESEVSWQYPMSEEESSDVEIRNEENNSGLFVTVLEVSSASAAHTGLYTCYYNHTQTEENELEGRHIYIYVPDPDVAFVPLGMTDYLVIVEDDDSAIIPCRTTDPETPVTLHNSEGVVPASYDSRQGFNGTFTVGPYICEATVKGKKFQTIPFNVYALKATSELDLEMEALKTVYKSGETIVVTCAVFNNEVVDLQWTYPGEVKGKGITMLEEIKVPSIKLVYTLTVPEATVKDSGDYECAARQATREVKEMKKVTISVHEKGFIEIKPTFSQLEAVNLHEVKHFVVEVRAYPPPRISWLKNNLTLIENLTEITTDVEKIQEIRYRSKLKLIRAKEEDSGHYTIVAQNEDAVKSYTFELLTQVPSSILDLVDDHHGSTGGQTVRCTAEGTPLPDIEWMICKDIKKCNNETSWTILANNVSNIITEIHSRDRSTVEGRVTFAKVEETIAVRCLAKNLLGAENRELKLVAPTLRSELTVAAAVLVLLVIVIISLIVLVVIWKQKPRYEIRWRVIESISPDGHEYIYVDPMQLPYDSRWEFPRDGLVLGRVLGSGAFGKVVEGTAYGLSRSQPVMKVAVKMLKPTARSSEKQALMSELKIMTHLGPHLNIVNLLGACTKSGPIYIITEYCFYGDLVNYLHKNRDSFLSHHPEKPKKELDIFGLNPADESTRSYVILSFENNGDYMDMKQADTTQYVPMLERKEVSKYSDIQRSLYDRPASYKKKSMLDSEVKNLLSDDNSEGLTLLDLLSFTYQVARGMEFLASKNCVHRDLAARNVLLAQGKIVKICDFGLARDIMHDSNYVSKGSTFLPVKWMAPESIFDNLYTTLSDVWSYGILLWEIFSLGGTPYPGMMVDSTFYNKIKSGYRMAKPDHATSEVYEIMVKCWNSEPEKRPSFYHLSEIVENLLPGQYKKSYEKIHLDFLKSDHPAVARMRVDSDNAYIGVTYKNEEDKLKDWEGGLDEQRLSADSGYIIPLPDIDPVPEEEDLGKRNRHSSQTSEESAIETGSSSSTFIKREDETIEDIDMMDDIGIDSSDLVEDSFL
T9 sequence (P09619 33-1106): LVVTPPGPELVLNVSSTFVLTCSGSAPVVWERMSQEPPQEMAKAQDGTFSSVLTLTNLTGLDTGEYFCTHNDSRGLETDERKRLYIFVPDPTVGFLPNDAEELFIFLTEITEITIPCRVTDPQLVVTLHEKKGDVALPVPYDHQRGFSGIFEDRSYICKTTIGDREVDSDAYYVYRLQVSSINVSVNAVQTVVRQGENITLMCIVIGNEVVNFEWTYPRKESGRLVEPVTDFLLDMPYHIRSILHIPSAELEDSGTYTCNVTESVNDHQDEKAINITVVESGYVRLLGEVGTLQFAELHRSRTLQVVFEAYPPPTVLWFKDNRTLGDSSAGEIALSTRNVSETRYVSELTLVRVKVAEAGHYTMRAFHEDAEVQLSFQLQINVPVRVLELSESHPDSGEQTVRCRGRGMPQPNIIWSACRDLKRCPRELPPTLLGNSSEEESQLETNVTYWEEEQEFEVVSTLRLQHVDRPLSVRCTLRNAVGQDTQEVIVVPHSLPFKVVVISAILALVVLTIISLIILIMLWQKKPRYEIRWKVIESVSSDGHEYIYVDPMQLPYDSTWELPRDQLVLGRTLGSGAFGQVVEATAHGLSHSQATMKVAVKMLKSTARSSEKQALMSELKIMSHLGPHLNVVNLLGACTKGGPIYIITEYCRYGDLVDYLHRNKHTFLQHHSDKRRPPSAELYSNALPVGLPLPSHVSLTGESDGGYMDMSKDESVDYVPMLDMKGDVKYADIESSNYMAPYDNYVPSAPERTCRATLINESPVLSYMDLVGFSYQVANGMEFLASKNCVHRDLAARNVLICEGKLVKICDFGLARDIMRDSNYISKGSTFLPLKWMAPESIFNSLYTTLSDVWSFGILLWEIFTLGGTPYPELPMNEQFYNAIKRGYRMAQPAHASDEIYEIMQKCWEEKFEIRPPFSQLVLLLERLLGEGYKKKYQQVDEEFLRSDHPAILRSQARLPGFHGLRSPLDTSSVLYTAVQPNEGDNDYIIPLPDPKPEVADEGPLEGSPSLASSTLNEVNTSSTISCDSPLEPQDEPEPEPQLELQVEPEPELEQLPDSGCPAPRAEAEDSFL
T1 sequence (Q15303 26-1308): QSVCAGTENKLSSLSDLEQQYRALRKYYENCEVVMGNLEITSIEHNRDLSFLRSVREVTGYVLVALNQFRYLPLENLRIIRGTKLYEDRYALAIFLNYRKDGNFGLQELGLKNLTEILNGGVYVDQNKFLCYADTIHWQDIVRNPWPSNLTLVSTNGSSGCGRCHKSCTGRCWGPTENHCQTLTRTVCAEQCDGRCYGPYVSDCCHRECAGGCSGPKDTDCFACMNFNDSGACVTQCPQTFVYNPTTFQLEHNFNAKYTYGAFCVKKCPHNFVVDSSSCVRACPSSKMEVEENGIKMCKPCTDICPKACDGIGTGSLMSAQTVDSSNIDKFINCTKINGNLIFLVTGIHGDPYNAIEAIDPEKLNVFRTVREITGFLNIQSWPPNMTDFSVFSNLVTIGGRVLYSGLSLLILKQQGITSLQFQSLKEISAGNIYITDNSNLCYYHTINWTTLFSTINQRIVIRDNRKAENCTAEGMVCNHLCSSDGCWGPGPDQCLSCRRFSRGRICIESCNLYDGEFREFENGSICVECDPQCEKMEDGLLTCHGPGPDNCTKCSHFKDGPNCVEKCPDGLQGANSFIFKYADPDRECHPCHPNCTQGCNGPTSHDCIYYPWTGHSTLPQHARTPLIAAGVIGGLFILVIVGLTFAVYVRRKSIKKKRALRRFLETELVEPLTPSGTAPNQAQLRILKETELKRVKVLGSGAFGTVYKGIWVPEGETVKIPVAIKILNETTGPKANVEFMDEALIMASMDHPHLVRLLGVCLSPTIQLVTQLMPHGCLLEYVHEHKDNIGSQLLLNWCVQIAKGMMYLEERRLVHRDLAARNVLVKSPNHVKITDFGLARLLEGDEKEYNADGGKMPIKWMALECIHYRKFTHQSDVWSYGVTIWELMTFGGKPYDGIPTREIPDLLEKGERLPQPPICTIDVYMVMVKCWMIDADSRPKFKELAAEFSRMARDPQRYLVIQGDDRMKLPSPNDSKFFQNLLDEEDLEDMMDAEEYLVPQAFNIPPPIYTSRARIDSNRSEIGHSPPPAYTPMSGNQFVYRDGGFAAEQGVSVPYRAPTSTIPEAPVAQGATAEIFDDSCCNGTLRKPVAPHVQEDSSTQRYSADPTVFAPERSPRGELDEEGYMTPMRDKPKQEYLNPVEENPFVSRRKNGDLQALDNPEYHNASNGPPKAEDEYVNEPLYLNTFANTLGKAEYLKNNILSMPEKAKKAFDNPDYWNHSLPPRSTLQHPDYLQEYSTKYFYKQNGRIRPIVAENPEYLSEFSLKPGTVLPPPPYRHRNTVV
T8 sequence (Q96GD4 whole entry): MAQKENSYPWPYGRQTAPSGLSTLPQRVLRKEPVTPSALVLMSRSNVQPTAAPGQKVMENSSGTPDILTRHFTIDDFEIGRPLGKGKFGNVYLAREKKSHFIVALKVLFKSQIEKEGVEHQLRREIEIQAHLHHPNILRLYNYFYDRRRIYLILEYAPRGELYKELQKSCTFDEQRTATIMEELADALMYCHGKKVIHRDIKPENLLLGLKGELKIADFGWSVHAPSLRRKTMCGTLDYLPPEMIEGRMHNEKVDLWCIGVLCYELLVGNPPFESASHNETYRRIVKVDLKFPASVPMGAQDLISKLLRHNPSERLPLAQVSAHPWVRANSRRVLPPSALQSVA

CNC(=O)c1cc(Oc2ccc(NC(=O)c3cccc(C(=O)Nc4cccc(C(F)(F)F)c4)c3)cc2)ccn1 [Compound 6, N1-(4-((2-(methylcarbamoyl)pyridin-4-yl)oxy)phenyl)-N3-(3-(trifluoromethyl)phenyl)isophthalamide]
IC50 [1]: > 50 µM | melting point: 258 to 260 °C | IC50 [2]: 13 ± 2.99 µM | IC50 [3]: > 50 µM | IC50 [4]: 41.1 ± 5.06 µM | IC50 [5]: > 50 µM | IC50 [6]: > 50 µM | Antiproliferative activity (IC50) over the studied cell cultures [7]: lack of sensitivity of the cancer cells in the studied concentration range | IC50 (A549 (lung carcinoma)): > 50 µM

CNC(=O)c1cc(Oc2ccc(NC(=O)c3cccc(C(=O)Nc4cc(-n5cnc(C)c5)cc(C(F)(F)F)c4)c3)cc2)ccn1 [Compound 11, N1-(3-(4-methyl-1H-imidazol-1-yl)-5-(trifluoromethyl)phenyl)-N3-(4-((2-(methylcarbamoyl)pyridin-4-yl)oxy)phenyl)isophthalamide]
IC50 [1]: 26.5 ± 3.65 µM | melting point: 313 to 315 °C | IC50 [2]: 21.9 ± 0.44 µM | IC50 [3]: > 50 µM | IC50 [4]: > 50 µM | IC50 [5]: > 50 µM | IC50 [6]: > 50 µM | Antiproliferative activity (IC50) over the studied cell cultures [7]: lack of sensitivity of the cancer cells in the studied concentration range | IC50 (A549 (lung carcinoma)): > 50 µM

Cc1cn(-c2cc(NC(=O)c3cccc(C(=O)Nc4cc([N+](=O)[O-])ccc4C)c3)cc(C(F)(F)F)c2)cn1 [Compound 12, N1-(3-(4-methyl-1H-imidazol-1-yl)-5-(trifluoromethyl)phenyl)-N3-(2-methyl-5-nitrophenyl)isophthalamide]
IC50 [1]: 27.5 ± 2.58 µM | melting point: 290 to 292 °C | IC50 [2]: 2.36 ± 1.13 µM | IC50 [3]: > 50 µM | IC50 [4]: > 50 µM | IC50 [5]: > 50 µM | IC50 [6]: > 50 µM | Antiproliferative activity (IC50) over the studied cell cultures [7]: lack of sensitivity of the cancer cells in the studied concentration range | IC50 (A549 (lung carcinoma)): > 50 µM

Cc1cn(-c2cc(NC(=O)c3ccc(C(=O)Nc4cccc(C(F)(F)F)c4)cc3)cc(C(F)(F)F)c2)cn1 [Compound 17, N1-(3-(4-methyl-1H-imidazol-1-yl)-5-(trifluoromethyl)phenyl)-N4-(3-(trifluoromethyl)phenyl)-terephthalamide]
inhibition at 10 µM (HER4): 0% | inhibition at 10 µM (KDR (VEGFR-2)): 0% | IC50 [1]: > 50 µM | inhibition at 10 µM (EGFR): 0% | melting point: 208 to 210 °C | inhibition at 10 µM (PDGFRα): ≤ 20% | IC50 [2]: > 50 µM | IC50 [3]: > 50 µM | inhibition at 10 µM (InsR (insulin receptor)): 0% | inhibition at 10 µM [8]: 0% | IC50 [4]: > 50 µM | IC50 [5]: 15.6 µM | inhibition at 10 µM (Aurora A): 0% | IC50 [6]: > 50 µM | Antiproliferative activity (IC50) over the studied cell cultures [7]: practically did not affect the cell lines’ viability; also recorded: almost no effect on the cell lines’ viability | inhibition at 10 µM (Aurora B): 0% | inhibition at 10 µM (PDGFRβ): 15% | IC50 (A549 (lung carcinoma)): > 50 µM | inhibition at 10 µM (HER2): 13%

CS(=O)(=O)CCNCc1ccc(-c2ccc3ncnc(Nc4ccc(OCc5cccc(F)c5)c(Cl)c4)c3c2)o1 [Lapatinib, reference compound]
inhibition at 10 µM (HER4): 100% | IC50 [1]: 7.32 ± 2.15 µM | inhibition at 10 µM (PDGFRα): 2% | IC50 [2]: 9.31 ± 0.9 µM | IC50 [3]: 10.6 ± 1.02 µM | inhibition at 10 µM (InsR (insulin receptor)): 0% | inhibition at 10 µM [8]: 0% | IC50 [4]: 10.9 ± 0.34 µM | ROS Level, % of Control (K562 cell line; K562, 5 µM): 64.12 % of Control | ROS Level, % of Control (K562 cell line; K562, 10 µM): 72.23 % of Control | ROS Level, % of Control (K562 cell line; K562, 20 µM): 89.07 % of Control | IC50 [5]: 9.62 ± 1.56 µM | IC50 [6]: 27.1 ± 0.08 µM | Apoptosis, % (cell cycle analysis) (K562 cells; K562, 1 µM): 14.74% | G1, % (K562 cells; K562, 1 µM): 34.47% | G2/M, % (K562 cells; K562, 1 µM): 52.23% | S, % (K562 cells; K562, 1 µM): 13.31% | Apoptosis, % (cell cycle analysis) (K562 cells; K562, 5 µM): 28.92% | G1, % (K562 cells; K562, 5 µM): 31.31% | G2/M, % (K562 cells; K562, 5 µM): 55.68% | S, % (K562 cells; K562, 5 µM): 13.02% | IC50 ([7]; read-out: Antiproliferative activity (IC50) over the studied cell cultures): 2 to 27 µM | inhibition at 10 µM (PDGFRβ): 10% | IC50 (A549 (lung carcinoma)): 18.6 ± 2.65 µM | inhibition at 10 µM (HER2): 76%
